From US11026958B2, “Substituted 6-membered aryl or heteroaryl allosteric modulators of nicotinic acetylcholine receptors” (Merck Sharp & Dohme Corp., priority 2016, dated 2021)
Read-outs that look alike come from different tables or passages of the source.

Target: human α7 nAChR (Homo sapiens (Human), UniProt P36544)
Test: Automated patch-clamp electrophysiology functional assay (Assay A), IonFlux HT
Assay type: cell-based
Details: HEK cell line stably expressing human RIC-3 and human α7, whole-cell population patch, 40 μM acetylcholine
Protocol: The α7 nAChR positive allosteric modulator (PAM) activity of the present compounds may be tested using assays known in the art. The α7 nAChR PAMs described herein have activities in an automated patch-clamp electrophysiology functional assay as described in the examples. The assay was performed using the IonFlux HT in a whole-cell, population patch configuration. See Golden et al. Assay Drug Dev. Technol. (2011) 9:608-619. The compounds were assessed for their ability to modulate the function of the human α7 nAChR stably expressed in a HEK cell line both in the presence, and in the absence of the natural α7 agonist acetylcholine. By performing a series of such measurements at different concentrations, the effective concentration of the α7 nAChR PAMs (EC50) was determined. See Spencer et al. Assay Drug Dev. Technol. (2012) 10:313-324.
Automated patch-clamp electrophysiology was performed using the IonFlux HT (Fluxion Biosciences Inc., San Francisco, Calif.) in the whole-cell, population patch configuration. Test compounds were assessed for their ability to modulate the function of the α7 nicotinic acetylcholine receptor both in the presence, and in the absence of the natural α7 agonist acetylcholine. A HEK cell line stably expressing both human RIC-3 and human α7 (PrecisION hnAChR α7/RIC-3, Eurofins Pharma, St. Charles, Mo.) was cultured in 175 cm^2 triple-layer tissue culture flasks to no more than 90% confluency in DMEM/F-12 growth media supplemented with 10% heat-inactivated fetal bovine serum, 1% non-essential amino acids, 0.625 μg/mL Puromycin, and 400 μg/mL Geneticin. Immediately prior to assay, cells were detached by first aspirating growth media, rinsing with Dulbecco's phosphate buffered saline, and then adding 10 mL of Accutase (Innovative Cell Technologies, San Diego, Calif.) to the flask and then incubating at 37° C. for 5 minutes. Detached cells were then recovered by the addition of 40 mL of CHO-serum-free media supplemented with 25 mM HEPES, and rocked gently in a 50 mL conical tube for 20 minutes prior to patch-clamp assay. After recovery, cells were pelleted by centrifugation at 1,000 RPM for 1 minute in a compact bench top centrifuge; recovery media was aspirated and cells were resuspended in external recording solution (150 mM NaCl, 5 mM KCl, 2 mM CaCl2, 1 mM MgCl2, 10 mM HEPES, 12 mM dextrose) to a density of 5.0×10^6 cells/mL. The cell suspension was added to the cell inlet wells on an IonFlux HT population patch plate which had previously been rinsed and primed with deionized H2O. Test compounds were serially diluted in DMSO and then resuspended to the final test concentration in external recording solution, with, or without 40 μM acetylcholine added to the external recording solution; test compounds were then transferred to the IonFlux HT population patch plate. Internal recording solution (110 mM TrisPO4, 28 mM TrisBase, 0.1 mM CaCl2, 2 mM MgCl2, 11 mM EGTA, 4 mM MgATP) was added to the internal recording solution inlet wells on the IonFlux HT patch plate previously loaded with cells and test compounds, and the plate loaded into the IonFlux HT instrument. A protocol was executed on the IonFlux HT to trap the cells, break into the cells, and establish the whole-cell recording configuration; cells were voltage-clamped at a holding potential of −60 mV for the duration of the experiment, all experiments were conducted at room temperature, and the IonFlux HT injection pressure was 8 psi for solution applications. Upon establishing the whole-cell configuration, external recording solution was perfused into the recording chambers for 120 seconds and then 40 μM acetylcholine was applied for 1 second and immediately washed off with external recording solution for 60 seconds. The 40 μM acetylcholine-evoked α7 current served as the current response to which subsequent test compound effects, in the presence, or in the absence of 40 μM acetylcholine would be quantified relative to. […]

human α7 nAChR, sequence (P36544 23-502): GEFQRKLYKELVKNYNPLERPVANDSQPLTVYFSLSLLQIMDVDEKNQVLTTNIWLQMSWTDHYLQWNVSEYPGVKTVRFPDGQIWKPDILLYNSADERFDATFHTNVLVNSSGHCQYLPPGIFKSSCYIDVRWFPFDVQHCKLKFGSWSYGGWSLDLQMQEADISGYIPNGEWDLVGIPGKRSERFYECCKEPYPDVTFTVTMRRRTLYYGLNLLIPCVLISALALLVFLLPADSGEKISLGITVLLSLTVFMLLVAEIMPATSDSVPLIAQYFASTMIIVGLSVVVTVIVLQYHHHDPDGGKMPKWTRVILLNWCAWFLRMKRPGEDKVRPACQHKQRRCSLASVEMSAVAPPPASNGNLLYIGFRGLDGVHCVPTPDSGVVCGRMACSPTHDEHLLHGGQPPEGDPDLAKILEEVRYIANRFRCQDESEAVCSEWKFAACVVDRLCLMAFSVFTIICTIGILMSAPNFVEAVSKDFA

Row | Compound | EC50 (read-out: α7 nAChR EC50) [nM] | EC50 (read-out: α7 nAChR Potency) [nM]
1 | NS(=O)(=O)c1ccc([C@@H]2C[C@H]2c2nccc(-c3cncc(C(F)(F)F)c3)n2)cc1 (single isomer, unassigned) [Example C5, 4-(trans-2-{4-[5-(trifluoromethyl)pyridin-3-yl]pyrimidin-2-yl}cyclopropyl)benzenesulfonamide] | 3300 | 500 to 5000
2 | CC(C)c1cc(C2CC2c2ccc(S(N)(=O)=O)cc2)ccn1 (single isomer, unassigned) [Example 8, 4-{trans-2-[2-(Propan-2-yl)pyridin-4-yl]cyclopropyl}benzenesulfonamide] | 1200 | 500 to 5000
3 | CC(C)c1ccnc(C2CC2c2ccc(S(N)(=O)=O)cc2)n1 (racemic) [Example C3, 4-{trans-2-[4-(Propan-2-yl)pyrimidin-2-yl]cyclopropyl}benzenesulfonamide] | 1800 | 500 to 5000
4 | CC(C)c1ccc(C2CC2c2ccc(S(N)(=O)=O)cc2)nn1 (racemic) [Example B2, 4-{trans-2-[6-(Propan-2-yl)pyridazin-3-yl]cyclopropyl}benzenesulfonamide] | 8800 | 5000 to 50000
5 | NS(=O)(=O)c1ccc(C2CC2c2nccc(-c3cccc(F)c3)n2)cc1 (single isomer, unassigned) [Example 10, 4-{trans-2-[4-(3-Fluorophenyl)pyrimidin-2-yl]cyclopropyl}benzenesulfonamide] | 210 | 100 to 500
6 | NS(=O)(=O)c1ccc(C2CC2c2cccc(C3CCCC3)n2)cc1 (single isomer, unassigned) [Example 3, 4-[trans-2-(6-Cyclopentylpyridin-2-yl)cyclopropyl]benzenesulfonamide] | 1500 | 500 to 5000
7 | NS(=O)(=O)c1ccc(C2CC2c2cncc(N3CCCC3)c2)cc1 (racemic) [Example G2, 4-{trans-2-[5-(Pyrrolidin-1-yl)pyridin-3-yl]cyclopropyl}benzenesulfonamide] | 3200 | 500 to 5000
8 | CN(C)c1nccc(C2CC2c2ccc(S(N)(=O)=O)cc2)n1 (racemic) [Example D1, 4-{trans-2-[2-(Dimethylamino)pyrimidin-4-yl]cyclopropyl}benzenesulfonamide] | 2900 | 500 to 5000
9 | NS(=O)(=O)c1ccc([C@@H]2C[C@H]2c2ccc(N3CCCC3)nc2)cc1 (relative stereo) [Example 6, 4-{trans-2-[6-(Pyrrolidin-1-yl)pyridin-3-yl]cyclopropyl}benzenesulfonamide] | 720 | 500 to 5000
10 | 4-{trans-2-[2-(Benzylamino)pyrimidin-4-yl]cyclopropyl}benzenesulfonamide [Example D3] | – | 500 to 5000
11 | NS(=O)(=O)c1ccc(C2CC2c2nccc(-c3cncc(C(F)(F)F)c3)n2)cc1 (single isomer, unassigned) [Example 11, 4-(trans-2-{4-[5-(Trifluoromethyl)pyridin-3-yl]pyrimidin-2-yl}cyclopropyl)benzenesulfonamide] | 240 | 100 to 500
12 | CC(C)c1ccc(C2CC2c2ccc(S(N)(=O)=O)cc2)cn1 (racemic) [Example G1, 4{-trans-2-[6-(Propan-2-yl)pyridin-3-yl]cyclopropyl}benzenesulfonamide] | – | 500 to 5000
13 | 4-(trans-2-{2-[(2,2-Dimethylpropyl)amino]pyrimidin-4-yl}cyclopropyl)benzenesulfonamide [Example D5] | 1800 | 500 to 5000
14 | CC(C)c1cc(C2CC2c2ccc(S(N)(=O)=O)cc2)ccn1 (racemic) [Example E1, 4-{trans-2-[2-(Propan-2-yl)pyridin-4-yl]cyclopropyl}benzenesulfonamide] | – | 500 to 5000
15 | NS(=O)(=O)c1ccc(C2CC2c2ccnc(NCCc3ccccc3)n2)cc1 (racemic) [Example D10, 4-(trans-2-{2-[(2-Phenylethyl)amino]pyrimidin-4-yl}cyclopropyl)benzenesulfonamide] | 1100 | 500 to 5000
16 | NS(=O)(=O)c1ccc([C@@H]2C[C@H]2c2ccnc(N3CCOCC3)n2)cc1 (relative stereo) [Example 2, 4-{trans-2-[2-(Morpholin-4-yl)pyrimidin-4-yl]cyclopropyl}benzenesulfonamide] | – | 500 to 5000
17 | NS(=O)(=O)c1ccc([C@@H]2C[C@H]2c2cccc(C3CCCC3)n2)cc1 (racemic) [Example A12, 4-[trans-2-(6-Cyclopentylpyridin-2-yl)cyclopropyl]benzenesulfonamide] | – | 100 to 500
18 | CC(C)c1cccc(C2CC2c2ccc(S(N)(=O)=O)cc2)n1 (racemic) [Example A10, 4-{trans-2-[6-(Propan-2-yl)pyridin-2-yl]cyclopropyl}benzenesulfonamide] | – | 500 to 5000
19 | CC1(C)[C@H](c2ccc(S(N)(=O)=O)cc2)[C@H]1c1nccc(-c2cncc(C(F)(F)F)c2)n1 [Example 9, 4-[(1R,3R)-2,2-Dimethyl-3-{4-[5-(trifluoromethyl)pyridin-3-yl]pyrimidin-2-yl}cyclopropyl]benzenesulfonamide] | 1400 | 500 to 5000
20 | CC(C)(C#N)c1ccc([C@@H]2C[C@H]2c2ccc(S(N)(=O)=O)cc2)cn1 (racemic) [Example G5, 4-{trans-2-[6-(2-Cyanopropan-2-yl)pyridin-3-yl]cyclopropyl}benzenesulfonamide] | 3400 | 500 to 5000
21 | NS(=O)(=O)c1ccc([C@@H]2C[C@H]2c2cccc(C3CCOCC3)n2)cc1 (racemic) [Example A9, 4-{trans-2-[6-(Tetrahydro-2H-pyran-4-yl)pyridin-2-yl]cyclopropyl}benzenesulfonamide] | 5600 | 5000 to 50000
22 | NS(=O)(=O)c1ccc(C2CC2c2ccnc(Nc3ccccc3)n2)cc1 (racemic) [Example D11, 4-{trans-2-[2-(Phenylamino)pyrimidin-4-yl]cyclopropyl}benzenesulfonamide] | 3300 | 500 to 5000
23 | CC(C)c1cncc(C2CC2c2ccc(S(N)(=O)=O)cc2)n1 (racemic) [Example B3, 4-{trans-2-[6-(Propan-2-yl)pyrazin-2-yl]cyclopropyl}benzenesulfonamide] | – | 500 to 5000
24 | CC(C)c1ccc(C2CC2c2ccc(S(N)(=O)=O)cc2)nc1 (single isomer, unassigned) [Example A3, 4-{trans-2-[5-(Propan-2-yl)pyridin-2-yl]cyclopropyl}benzenesulfonamide] | 550 | 500 to 5000
25 | NS(=O)(=O)c1ccc([C@@H]2C[C@H]2c2ccnc(C3CCC3)c2)cc1 (racemic) [Example E3, 4-[trans-2-(2-Cyclobutylpyridin-4-yl)cyclopropyl]benzenesulfonamide] | 500 | 100 to 500
26 | 4-(trans-2-{2-[(4-Fluorophenyl)amino]pyrimidin-4-yl}cyclopropyl)benzenesulfonamide [Example D8] | 3800 | 500 to 5000
27 | CC(C)c1ccc(C2CC2c2ccc(S(N)(=O)=O)cc2)nc1 (single isomer, unassigned) [Example A5, 4-{trans-2-[5-(Propan-2-yl)pyridin-2-yl]cyclopropyl}benzenesulfonamide] | – | 500 to 5000
28 | 4-(trans-2-{2-[Methyl(phenyl)amino]pyrimidin-4-yl}cyclopropyl)benzenesulfonamide [Example D6] | – | 500 to 5000
29 | 4-{trans-2-[2-(Cyclopentylamino)pyrimidin-4-yl]cyclopropyl}benzenesulfonamide [Example D2] | 2200 | 500 to 5000
